From ChEMBL document CHEMBL1201862, “PubChem BioAssay data set” (2004)
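Cultured in 96-well plates, cells were exposed to test compound for 48 hours across five concentrations. Abbreviation: GI50, concentration required for 50% inhibition of growth.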 Calls of active or inactive are those of the source. Cut-off read from the data, not from the text of the source: active = GI50 up to about 1.1 µM and inactive = higher.

Tests used:
Assay in all cases: NCI-60 cell line screen, 48 h
NCI-H226 = test system: NCI-H226
M14 = test system: M14
HOP-92 = test system: HOP-92
SK-MEL-28 = test system: SK-MEL-28
SF-295 = test system: SF-295
EKVX = test system: EKVX
RXF 393 = test system: RXF 393
SF-268 = test system: SF-268
CAKI-1 = test system: CAKI-1
UACC-257 = test system: UACC-257
COLO 205 = test system: COLO 205
OVCAR-4 = test system: OVCAR-4
SNB-75 = test system: SNB-75
786-0 = test system: 786-0
MOLT-4 = test system: MOLT-4
LOX IMVI = test system: LOX IMVI

Measured: GI50

CC(C)C1=CC(=O)C(C)(C2=NC(C)(C)CO2)c2ccccc21 (configuration not stated)
inactive: NCI-H226 51.5 µM | M14 > 100 µM | HOP-92 > 100 µM | SK-MEL-28 > 100 µM | SF-295 > 100 µM | EKVX 96.6 µM | RXF 393 > 100 µM | SF-268 > 100 µM | CAKI-1 > 100 µM | UACC-257 63.8 µM | COLO 205 > 100 µM | OVCAR-4 > 100 µM | SNB-75 96.4 µM | 786-0 > 100 µM | MOLT-4 67.3 µM

Brc1ccc(C[P+]2(c3ccccc3)CCCCC2)cc1.[O-][Cl+3]([O-])([O-])[O-]
inactive: NCI-H226 > 100 µM | M14 65.9 µM | SK-MEL-28 63.7 µM | SF-295 > 100 µM | LOX IMVI 63.2 µM | EKVX > 100 µM | RXF 393 > 100 µM | UACC-257 23.9 µM | COLO 205 20.5 µM | SNB-75 26.2 µM | 786-0 > 100 µM | MOLT-4 > 100 µM

COC(=O)C(Br)C1CCc2ccccc21 (configuration not stated)
inactive: NCI-H226 46.3 µM | M14 > 100 µM | HOP-92 > 100 µM | SK-MEL-28 > 100 µM | SF-295 52.6 µM | LOX IMVI > 100 µM | SF-268 > 100 µM | CAKI-1 > 100 µM | UACC-257 > 100 µM | COLO 205 > 100 µM | OVCAR-4 53.2 µM | 786-0 > 100 µM | MOLT-4 68.7 µM

CCOC(=O)/N=c1/nc(N(C)C)ss1
inactive: NCI-H226 30.3 µM | M14 > 100 µM | HOP-92 > 100 µM | SK-MEL-28 > 100 µM | SF-295 > 100 µM | EKVX > 100 µM | RXF 393 > 100 µM | SF-268 > 100 µM | CAKI-1 > 100 µM | UACC-257 > 100 µM | OVCAR-4 > 100 µM | SNB-75 > 100 µM | 786-0 > 100 µM | MOLT-4 > 100 µM

COC(=O)CC(NC(=O)OCc1ccccc1)C(C(=O)OCc1ccccc1)C(C)(OC)OC (configuration not stated)
inactive: NCI-H226 22.6 µM | M14 33.6 µM | SK-MEL-28 52.1 µM | SF-295 24.6 µM | LOX IMVI 16.6 µM | EKVX 29.7 µM | RXF 393 16.8 µM | SF-268 39.9 µM | UACC-257 23.7 µM | COLO 205 16.9 µM | OVCAR-4 28.6 µM | SNB-75 16.4 µM | 786-0 33.3 µM | MOLT-4 5.94 µM

CC(=O)NNc1nc(C)c(C(=O)/C=C/c2ccc(/C=C/C(=O)c3sc(NNC(C)=O)nc3C)cc2)s1
inactive: NCI-H226 > 100 µM | M14 43.2 µM | SK-MEL-28 > 100 µM | SF-295 > 100 µM | LOX IMVI > 100 µM | EKVX 57.3 µM | RXF 393 > 100 µM | SF-268 > 100 µM | CAKI-1 > 100 µM | UACC-257 > 100 µM | COLO 205 > 100 µM | OVCAR-4 > 100 µM | 786-0 > 100 µM | MOLT-4 > 100 µM

CCCP1(=O)C=C(C)C(=C(Cl)Cl)C(C)=C1 (configuration not stated)
inactive: M14 33.7 µM | HOP-92 24.2 µM | SK-MEL-28 44.1 µM | SF-295 35.2 µM | EKVX 83 µM | RXF 393 25.9 µM | SF-268 25.9 µM | UACC-257 64.4 µM | COLO 205 36.1 µM | OVCAR-4 > 100 µM | 786-0 44.5 µM | MOLT-4 31 µM

CCCCCCCCCCCCCC(=O)OCC(C[As](=O)(O)O)OC(=O)CCCCCCCCCCCCC (configuration not stated)
inactive: NCI-H226 > 100 µM | M14 > 100 µM | HOP-92 86.5 µM | SK-MEL-28 > 100 µM | EKVX > 100 µM | RXF 393 35.3 µM | SF-268 > 100 µM | CAKI-1 > 100 µM | UACC-257 > 100 µM | OVCAR-4 > 100 µM | SNB-75 > 100 µM | 786-0 > 100 µM | MOLT-4 > 100 µM

COc1ccc(N2C(=O)C3c4[nH]c5ccccc5c4C4CC(C)(C)CC(C)(C)C4C3C2=O)cc1 (configuration not stated)
inactive: NCI-H226 14 µM | M14 14.3 µM | HOP-92 11.9 µM | SK-MEL-28 14.1 µM | SF-295 8.05 µM | EKVX 15.9 µM | RXF 393 12.8 µM | SF-268 16.4 µM | UACC-257 19.4 µM | COLO 205 8.81 µM | OVCAR-4 10.2 µM | SNB-75 16.8 µM | 786-0 12.9 µM | MOLT-4 14.4 µM

CC(=O)Nc1ccc(S(=O)(=O)N/N=C(\C)CN2C(=O)c3ccccc3C2=O)cc1
inactive: NCI-H226 > 100 µM | M14 > 100 µM | SF-295 > 100 µM | EKVX > 100 µM | CAKI-1 > 100 µM | UACC-257 > 100 µM | COLO 205 > 100 µM | OVCAR-4 > 100 µM | SNB-75 75.5 µM | 786-0 > 100 µM | MOLT-4 > 100 µM

CC(=O)c1ccccc1NC(=O)C(=O)C(C(=O)c1ccccc1-c1ccccc1)C1OC(=O)c2ccccc21 (configuration not stated)
inactive: NCI-H226 14.9 µM | M14 18.2 µM | SF-295 22.2 µM | LOX IMVI 18.7 µM | EKVX 29.7 µM | RXF 393 11.5 µM | CAKI-1 37.8 µM | UACC-257 15.7 µM | COLO 205 23.2 µM | OVCAR-4 33.7 µM | SNB-75 25.5 µM | 786-0 18.6 µM | MOLT-4 24.8 µM

COC(=O)C1CCc2nnc(-c3cccnc3)n21 (configuration not stated)
inactive: NCI-H226 > 100 µM | M14 > 100 µM | SK-MEL-28 > 100 µM | EKVX > 100 µM | RXF 393 > 100 µM | SF-268 > 100 µM | CAKI-1 > 100 µM | UACC-257 > 100 µM | COLO 205 > 100 µM | OVCAR-4 > 100 µM | SNB-75 > 100 µM | 786-0 > 100 µM | MOLT-4 > 100 µM

CCOC1c2cc(C(C)C)c(O)c(O)c2[C@@]23CCCC(C)(C)C2C1OC3=O (some centres not stated)
inactive: NCI-H226 > 100 µM | M14 > 100 µM | SK-MEL-28 > 100 µM | SF-295 > 100 µM | LOX IMVI > 100 µM | EKVX > 100 µM | RXF 393 30.3 µM | SF-268 > 100 µM | CAKI-1 > 100 µM | UACC-257 > 100 µM | COLO 205 > 100 µM | SNB-75 47.8 µM | 786-0 > 100 µM | MOLT-4 50 µM

Cc1ccc(NC(=O)C(=O)Cc2cccc[n+]2[O-])cc1C
inactive: NCI-H226 > 100 µM | M14 > 100 µM | SK-MEL-28 > 100 µM | SF-295 > 100 µM | LOX IMVI > 100 µM | EKVX > 100 µM | RXF 393 > 100 µM | SF-268 > 100 µM | CAKI-1 > 100 µM | UACC-257 > 100 µM | COLO 205 > 100 µM | OVCAR-4 > 100 µM | SNB-75 > 100 µM | 786-0 > 100 µM | MOLT-4 > 100 µM
